Reference: publication PMC11237012, “Synthesis and preliminary evaluation of novel PET probes for GSK-3 imaging” (Scientific Reports, 2024)

Experiment: Radiochemical stability in mouse serum (rad-TLC)
Assay type: in vitro ADME
Conditions: 37 °C
Method: The stability of PET probes [^18F]2 and [^18F]6 was measured in isotonic NaCl solution (0.9% NaCl) and mouse and human serums at 37 °C for up to 120 min by rad-TLC at 0 min, 30 min, 60 min and 120 min post incubation. The results obtained are presented in Fig. 5 and SI-Figs. S10–S15, SI-Table S1. […] The plausible explanation of the instability of [^18F]6 could be attributed to the covalent interaction of [^18F]6’s SO2F group with primary amines of amino acid residues present in the protein rich mouse and human serums. In fact, in an unrelated study, Zhao et al. reported formation of sulfonamide bond between sulfuryl fluoride and primary amine of conserved lysine residues of different kinases. […] Based on 2’s favorable blood–brain barrier permeability, nanomolar binding affinity and PET probe [^18F]2’s excellent stability in both mouse and human serums, further in vivo evaluations were performed only with PET probe [^18F]2.
Stability of [^18F]2 and [^18F]6 was assessed in isotonic NaCl solution and human and mouse serums. To perform this stability assay, 100 µL of [^18F]2 (~ 37.0 MBq) or 100 µL of [^18F]6 (~ 37.0 MBq) as in final formulation was added to 100 µL of human serum or mouse serum in a microcentrifuge tube. The resultant mixture was incubated at 37 °C for 120 min. To assess the radiochemical stability of the probes, a small aliquot (~ 0.5 µL) was taken out from the mixture in triplicate at 0 min, 30 min, 60 min and 120 min during incubation, and analyzed on a rad-TLC using 0.5:9.5 methanol: chloroform as a mobile phase using i-TLC to estimate the stability of [^18F]2 or [^18F]6 at different time points post-incubation. After Stability preparative processes initial i-TLC development was considered as 0 min.

Measured: Percentage of intact probe

O=C(Nc1cnccc1-c1ccc([18F])cc1)c1ccnc(NC(=O)C2CC2)c1 [[^18F]2]
100 ± 0.0%: 0 min | 30 min | 60 min
